Laboratory results: patent publication US7829589B2, “Sulfonamide compounds and uses thereof” (Elixir Pharmaceuticals, Inc., priority 2005, dated 2010)
Entries after “also recorded” stand apart in the source; their conditions may differ. Ends that are not written are not given here.

Experiments:
[1] = Preliminary PK studies (IV/PO), oral bioavailability and brain/plasma ratio; assay type: in vivo; details: mouse, male diet-induced obese C57bl/6 mice; for Kp: brain and plasma, brain AUC vs plasma AUC; for bioavailability: oral bioavailability, plasma AUC PO vs IV
Method: Male, diet-induced obese, ad libidum fed, C57bl/6 mice were used for these preliminary PK studies. They were dosed (n=3 mice per data point) either IV or PO. Mice ere sacrificed and the blood/brains collected at the following times: IV samples were taken at 5, 15, 30, 60, 120, 240, 480 minutes after dosing; PO samples were taken at 15, 30, 60, 120, 240, 480 minutes after dosing. Plasma and brain samples were evaluated for the presence of compound. Oral bioavailability (% F) was determined by comparing the plasma AUCIV and AUCPO. The brain/plasma ratio was determined by comparing the brain AUC and plasma AUC values.

GHS-R = GHS-R (Homo sapiens, UniProt Q92847); assay: GHS-R antagonist activity (Ki) in a cell based assay
Outline: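 Transfected COS-7 cells were labelled 24 h with [^3H]-myo-inositol and preincubated 30 min at 37 °C in HEPES buffer pH 7.4 with 10 mM LiCl, optionally with 1 U/ml adenosine deaminase. Compound was applied for 45 min at 37 °C. [^3H]-inositol phosphates were extracted with perchloric acid and isolated by anion-exchange resin.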

C57bl/6 mice [2] = assay: Ghrelin-induced food intake in mice dosed ip; assay type: in vivo; details: 1, 3, 10, 30 mpk ip after ghrelin ip; food intake at 1, 2, 4, 6 hours; relative to vehicle
Method: Ad libidum low fat chow-fed male C57bl/6 mice were acclimated to individual housing for >5 days prior to the experiment. On the morning of the experiment food was removed from the cages and animals were then dosed ip (n=8/group) with either vehicle or ghrelin followed one minute later by a second ip injection containing either vehicle or one of several doses of compound (1, 3, 10, 30mpk ip). Immediately after the second dosing food was returned to the cages and food intake was measured 1, 2, 4 and 6 hours later.

mice [3] = assay: Plasma HbA1c and lipid profile after 28 day dosing; assay type: in vivo; details: at 28 days; for cholesterol levels / plasma HbA1c levels: versus vehicle
Excerpt: (§1) Group housed, male, C57bl/6 mice received high fat diet and water ad lib to establish diet-induced obesity, and for the duration of the experiment. After acclimating to individual housing for at least 5 days, mice were then acclimated to bid oral gavage with vehicle for 7 days. Once acclimated, mice were culled into equal groups (n>10/group) according to body weight and compound dosing began. Mice received either vehicle or compound (bid, po) for periods up to 28 days, during which body weight and food intake were measured daily. Representative cohorts (based on BW) for each group were removed at 7, 14, 21 or 28 days for glucose tolerance tests and tissue analysis.
Mice are sacrificed by CO2 asphyxiation and terminal blood samples were collected via cardiac puncture. For HbA1c, whole blood is analyzed using a DCA2000+ glycated hemoglobin analyzer (Bayer Healthcare, Indianapolis, Ind.). Triglycerides, total cholesterol, and HDL-cholesterol were all measured using a Cholestech LDX lipid profile analyzer (Cholestech, Hayward, Calif.). As shown in FIG. 6 and FIG. 7, both plasma HbA1c and cholesterol levels were improved at 28 days in animals treated with compound 57 and compound 94 versus animals treated with vehicle alone.

mice (DIO) = assay: Glucose tolerance test (GTT), insulin sensitivity in DIO mice; assay type: in vivo
Excerpt: as §1
On the night prior to the GTT, mice (DIO) within each dose group (n=8/group) had their body weight measured and were then fasted overnight for 16 hours prior to the GTT. On the morning of the GTT a 40 µL blood sample was removed from the tail for baseline fasted blood glucose and plasma insulin measurements. Mice then received their normal dose of compound. One hour later mice were dosed with glucose ([…], either IP or PO) and further tail bleeds (40 µL) were taken at 15, 30, 60 and 120 minutes after the glucose dose for blood glucose and plasma insulin measurements. Mice were sacrificed following the final sample time. Baseline fasted blood glucose levels are provided in FIG. 4a for compound 57 and in FIG. 4d for compound 94.

C57bl/6 mice [4] = assay: 28 days oral dosing in diet-induced obese mice: body weight and food intake; assay type: in vivo; details: bid po up to 28 days
Excerpt: as §1

mice [5] = assay: Fast refeed assay; assay type: in vivo
Method: Food is removed at 6 pm for an overnight (˜16 hour) fast. Beginning at 10 am on the next morning, mice are administered with either vehicle (e.g., saline+acetic acid, pH=5) or the compound of interest. Mice are then returned to their home cages and pre-weighed food (approximately 90 grams) is immediately returned to the food hoppers in each cage. The weight of the food remaining in the food hoppers is measured at 30 minutes, 1 hour, 2 hours, and 4 hours post compound/vehicle administration. Final body weights are then recorded for the mice.

[6] = FIGS. 4a-4f, 7 to 28 days oral dosing

Chain of GHS-R (Q92847 whole entry, species assumed): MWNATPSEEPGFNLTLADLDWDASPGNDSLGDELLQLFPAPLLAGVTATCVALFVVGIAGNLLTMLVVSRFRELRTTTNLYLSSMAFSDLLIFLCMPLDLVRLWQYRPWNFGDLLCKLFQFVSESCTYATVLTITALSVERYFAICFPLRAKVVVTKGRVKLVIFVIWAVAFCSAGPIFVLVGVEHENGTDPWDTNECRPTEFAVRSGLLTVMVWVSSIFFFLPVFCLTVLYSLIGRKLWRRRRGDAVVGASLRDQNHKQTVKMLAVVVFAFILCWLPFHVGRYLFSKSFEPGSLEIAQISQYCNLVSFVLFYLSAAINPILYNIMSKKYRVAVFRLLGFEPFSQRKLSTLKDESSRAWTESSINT

| Compound | Kp [1] | bioavailability [1] [%] | Ki (GHS-R) [nM] | ghrelin-induced food intake (C57bl/6 mice [2]) | cholesterol levels (mice [3]) | plasma HbA1c levels (mice [3]) | insulin sensitivity (mice (DIO); [6]) | insulin sensitivity (mice (DIO); GTT at 7 days of oral dosing) | insulin sensitivity (mice (DIO); GTT at 21 days of oral dosing) | body weight (C57bl/6 mice [4]) | food intake (C57bl/6 mice [4]) | feeding activity (mice [5]) | triglyceride levels (mice [3]) | insulin sensitivity (mice (DIO); GTT at 28 days of oral dosing) |
| --- | --- | --- | --- | --- | --- | --- | --- | --- | --- | --- | --- | --- | --- | --- |
| CCN(CC)CCCS(=O)(=O)N[C@H](CCc1ccccc1)c1nc(Cc2ccc(Br)cc2)no1 [Compound 57, 3-Diethylamino-propane-1-sulfonic acid {(R)-1-[3-(4-bromo-benzyl)-[1,2,4]oxadiazol-5-yl]-3-phenyl-propyl}-amide] | 0.139 | 10.2 | < 100 | block ghrelin-induced food intake; also recorded: reduced food intake | improved cholesterol levels | improved plasma HbA1c levels | improvement in insulin sensitivity | improved insulin sensitivity | improved insulin sensitivity | decreased body weight; also recorded: decrease in body weight | No apparent effect on food intake |  |  |  |
| substance P (RPKPQQFFGLM-NH2; ends and bridges not checked; UniProt P20366 58-68, looked up) |  |  |  |  |  |  |  |  |  |  |  | alters feeding activity |  |  |
| CCN(CC)CCCS(=O)(=O)N[C@H](CCc1ccccc1)c1nc(-c2ccc(OC)cc2)n[nH]1 [Compound 94, 3-Diethylamino-propane-1-sulfonic acid {(R)-1-[5-(4-methoxy-phenyl)-2H-[1,2,4]triazol-3-yl]-3-phenyl-propyl}-amide] | 0.087 | 63.2 | < 100 | block ghrelin-induced food intake; also recorded: reduced food intake | improved cholesterol levels | improved plasma HbA1c levels | improvement in insulin sensitivity | improved insulin sensitivity |  | decreased body weight; also recorded: decrease in body weight | No apparent effect on food intake |  | improved triglyceride levels | improved insulin sensitivity |
| CCN(CC)CCCS(=O)(=O)N[C@H](COCc1ccccc1)c1nc(-c2c(Cl)cccc2Cl)no1 [Compound 2, 3-Diethylamino-propane-1-sulfonic acid {(R)-2-benzyloxy-1-[3-(2,6-dichloro-phenyl)-[1,2,4]oxadiazol-5-yl]-ethyl}-amide] |  |  | < 100 |  |  |  |  |  |  |  |  |  |  |  |
| CCN(CC)CCCS(=O)(=O)N[C@H](CCc1ccccc1)c1nc(-c2ccc(F)cc2)no1 [Compound 66, 3-Diethylamino-propane-1-sulfonic acid {(R)-1-[3-(4-fluoro-phenyl)-[1,2,4]oxadiazol-5-yl]-3-phenyl-propyl}-amide] |  |  | < 100 |  |  |  |  |  |  |  |  |  |  |  |
